Molecules are shown by their SMILES.

Holding throughout (experiment): pIC50, kinobeads binding competition
The target in one assay is FGR (UniProt P09769). An outline of the steps:
(§1)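 Either living Jurkat cells (60 min at 37 °C, then lysis) or lysates (60 min at 4 °C) were treated with nine compound concentrations from a top of 30 μM, in 1:4 steps for cells and 1:5 steps for lysates. The lysates were from Jurkat cells or a 1:1:1:1 mix of HEK293, K-562, HepG2 and placenta. Kinobeads-bound proteins were digested and quantified by TMT10 LC-MS/MS. pIC50 was calculated by logistic dose-response fitting (R drc package) of fold changes relative to vehicle, in biological duplicates.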

Another assay addresses T1, UniProt O15111.
T1 sequence (whole entry): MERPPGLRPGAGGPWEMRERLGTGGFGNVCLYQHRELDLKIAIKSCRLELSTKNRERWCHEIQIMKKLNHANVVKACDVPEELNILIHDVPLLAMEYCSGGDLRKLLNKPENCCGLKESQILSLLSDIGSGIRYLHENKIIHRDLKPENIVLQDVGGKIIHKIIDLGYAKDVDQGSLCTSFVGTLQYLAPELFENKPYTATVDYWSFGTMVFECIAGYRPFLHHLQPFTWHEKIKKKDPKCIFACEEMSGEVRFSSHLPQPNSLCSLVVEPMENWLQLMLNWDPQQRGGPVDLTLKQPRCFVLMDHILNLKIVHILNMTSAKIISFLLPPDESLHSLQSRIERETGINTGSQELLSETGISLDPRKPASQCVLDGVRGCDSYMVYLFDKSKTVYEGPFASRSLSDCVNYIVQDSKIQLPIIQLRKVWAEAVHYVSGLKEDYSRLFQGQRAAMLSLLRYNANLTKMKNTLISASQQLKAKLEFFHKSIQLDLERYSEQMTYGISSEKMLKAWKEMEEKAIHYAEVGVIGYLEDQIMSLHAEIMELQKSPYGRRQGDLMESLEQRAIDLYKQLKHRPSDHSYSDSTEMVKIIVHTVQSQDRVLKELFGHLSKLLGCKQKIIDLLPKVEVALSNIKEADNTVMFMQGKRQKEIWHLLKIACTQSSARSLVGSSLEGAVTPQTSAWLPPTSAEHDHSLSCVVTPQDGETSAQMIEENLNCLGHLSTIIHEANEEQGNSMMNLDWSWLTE
The gist of the method:
as §1

In the next assay the target is T2, NEK9 (UniProt Q8TD19).
T2 sequence (whole entry): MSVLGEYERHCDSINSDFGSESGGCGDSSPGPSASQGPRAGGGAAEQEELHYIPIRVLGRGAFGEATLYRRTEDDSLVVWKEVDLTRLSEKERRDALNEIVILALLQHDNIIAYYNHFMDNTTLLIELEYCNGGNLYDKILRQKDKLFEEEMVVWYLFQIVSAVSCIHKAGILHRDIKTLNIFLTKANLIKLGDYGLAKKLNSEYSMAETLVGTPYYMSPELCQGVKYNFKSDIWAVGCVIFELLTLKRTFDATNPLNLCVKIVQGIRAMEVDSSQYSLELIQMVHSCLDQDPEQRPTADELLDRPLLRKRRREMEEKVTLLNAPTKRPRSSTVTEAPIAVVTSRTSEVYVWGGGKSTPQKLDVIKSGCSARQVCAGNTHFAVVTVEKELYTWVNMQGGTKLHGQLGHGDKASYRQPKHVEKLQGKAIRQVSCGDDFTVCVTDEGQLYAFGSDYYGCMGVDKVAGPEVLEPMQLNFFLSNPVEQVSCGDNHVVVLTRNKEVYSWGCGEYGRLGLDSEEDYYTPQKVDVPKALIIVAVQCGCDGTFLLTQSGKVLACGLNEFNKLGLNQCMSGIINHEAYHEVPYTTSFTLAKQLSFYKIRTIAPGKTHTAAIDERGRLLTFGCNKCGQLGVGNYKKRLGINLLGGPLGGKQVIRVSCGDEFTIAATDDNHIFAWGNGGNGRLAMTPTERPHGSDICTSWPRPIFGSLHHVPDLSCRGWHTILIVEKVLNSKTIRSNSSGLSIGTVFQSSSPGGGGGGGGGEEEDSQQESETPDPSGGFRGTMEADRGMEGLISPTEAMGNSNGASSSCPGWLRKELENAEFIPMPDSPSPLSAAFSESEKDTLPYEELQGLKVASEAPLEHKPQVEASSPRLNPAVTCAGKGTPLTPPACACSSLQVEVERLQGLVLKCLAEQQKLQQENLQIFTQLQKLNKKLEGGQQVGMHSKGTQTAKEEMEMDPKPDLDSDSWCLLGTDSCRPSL
An outline of the steps:
as §1

In another assay the target is T3, PIP4K2A (UniProt P48426).
T3 sequence (whole entry): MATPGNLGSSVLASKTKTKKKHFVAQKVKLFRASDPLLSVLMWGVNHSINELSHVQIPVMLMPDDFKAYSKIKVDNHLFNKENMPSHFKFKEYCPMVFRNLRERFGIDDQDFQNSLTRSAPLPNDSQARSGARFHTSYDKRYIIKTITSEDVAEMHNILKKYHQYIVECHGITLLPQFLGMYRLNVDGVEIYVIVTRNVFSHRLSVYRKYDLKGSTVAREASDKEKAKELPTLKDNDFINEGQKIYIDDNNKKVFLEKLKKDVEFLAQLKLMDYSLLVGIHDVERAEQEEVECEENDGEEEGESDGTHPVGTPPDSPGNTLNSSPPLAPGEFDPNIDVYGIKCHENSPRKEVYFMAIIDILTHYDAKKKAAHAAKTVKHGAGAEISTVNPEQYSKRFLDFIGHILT
The gist of the method:
as §1

FGR, sequence (P09769 whole entry, looked up): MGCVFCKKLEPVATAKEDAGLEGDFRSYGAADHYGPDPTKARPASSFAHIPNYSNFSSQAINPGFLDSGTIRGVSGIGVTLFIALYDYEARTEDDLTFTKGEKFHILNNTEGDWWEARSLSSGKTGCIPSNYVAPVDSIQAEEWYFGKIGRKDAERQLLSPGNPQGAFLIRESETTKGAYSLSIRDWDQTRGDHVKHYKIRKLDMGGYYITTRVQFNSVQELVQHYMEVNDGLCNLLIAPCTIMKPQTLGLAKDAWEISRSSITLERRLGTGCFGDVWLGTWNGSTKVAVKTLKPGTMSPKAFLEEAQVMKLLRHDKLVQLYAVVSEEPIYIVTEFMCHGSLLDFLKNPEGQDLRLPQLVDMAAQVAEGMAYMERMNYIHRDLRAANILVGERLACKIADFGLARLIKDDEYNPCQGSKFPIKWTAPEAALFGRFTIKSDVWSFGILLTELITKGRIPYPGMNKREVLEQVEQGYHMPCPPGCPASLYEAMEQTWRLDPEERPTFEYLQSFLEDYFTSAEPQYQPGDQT

One may read the pIC50 as −log10 of the IC50, conventionally taken in molar units. In the case of `O=C(NCCNC(=O)c1cc(Nc2cc(C3CC3)[nH]n2)nc(N2CCN(Cc3ccc(S(=O)(=O)F)cc3)CC2)n1)OC1CC/C=C/CCC1` (stereo not drawn), the pIC50 at FGR (cell material: Jurkat cells) is 5.92; at FGR (cell material: Jurkat lysate), less than 4.52; on UniProt O15111 (cell material: Jurkat cells), less than 4.52; on UniProt O15111 (cell material: Jurkat lysate) it was less than 4.52; on UniProt O15111 (cell material: Lysate mix), less than 4.52; on NEK9 (cell material: Jurkat cells), 6.9. Also, the pIC50 at NEK9 (cell material: Jurkat lysate) was 5.24; at NEK9 (cell material: Lysate mix), 5.56; at PIP4K2A (cell material: Jurkat cells), less than 4.52; at PIP4K2A (cell material: Jurkat lysate) it was less than 4.52; on PIP4K2A (cell material: Lysate mix), less than 4.52.

Regarding `Cc1cc(Nc2cc(C(=O)NCCNC(=O)OC3CC/C=C/CCC3)nc(N3CCN(Cc4ccc(S(=O)(=O)F)cc4)CC3)n2)n[nH]1` (stereo not drawn), the pIC50 was less than 4.52 at FGR (cell material: Lysate mix), less than 4.52 on UniProt O15111 (cell material: Lysate mix), 5.2 on NEK9 (cell material: Lysate mix) and less than 4.52 on PIP4K2A (cell material: Lysate mix).

For the compound `CCNC(=O)c1cc(Nc2cc(C)[nH]n2)nc(N2CCN(Cc3ccc(S(=O)(=O)F)cc3)CC2)n1`, the pIC50 at FGR (cell material: Lysate mix) is 5.92; at UniProt O15111 (cell material: Lysate mix) it was less than 4.52; on NEK9 (cell material: Lysate mix), 7.27; on PIP4K2A (cell material: Lysate mix), less than 4.52.

For `C#CCNC(=O)c1cc(Nc2cc(C3CC3)[nH]n2)nc(N2CCN(Cc3ccc(S(=O)(=O)F)cc3)CC2)n1`, the pIC50 on FGR (cell material: Jurkat lysate) is 5.6; at FGR (cell material: Lysate mix) it was 6.2; at UniProt O15111 (cell material: Jurkat cells), less than 4.52; at UniProt O15111 (cell material: Jurkat lysate), less than 4.52; on UniProt O15111 (cell material: Lysate mix) it was less than 4.52; at NEK9 (cell material: Jurkat cells), 6.87. For the same compound, the pIC50 on NEK9 (cell material: Jurkat lysate) is 6.66; on NEK9 (cell material: Lysate mix), 7.48; on PIP4K2A (cell material: Jurkat cells) it was 4.96; on PIP4K2A (cell material: Jurkat lysate), less than 4.52; at PIP4K2A (cell material: Lysate mix), less than 4.52.

`C#CCNC(=O)c1cc(Nc2cc(C)[nH]n2)nc(N2CCN(Cc3ccc(S(=O)(=O)F)cc3)CC2)n1`: the pIC50 is 5.51 on FGR (cell material: Lysate mix), less than 4.52 on UniProt O15111 (cell material: Lysate mix), 6.52 on NEK9 (cell material: Lysate mix) and less than 4.52 at PIP4K2A (cell material: Lysate mix).

With `CCNC(=O)c1cc(Nc2cc(C3CC3)[nH]n2)nc(N2CCN(Cc3ccc(S(=O)(=O)F)cc3)CC2)n1`, the pIC50 on FGR (cell material: Lysate mix) was 5.92; at UniProt O15111 (cell material: Lysate mix) it was less than 4.52; on NEK9 (cell material: Lysate mix), 7.29; at PIP4K2A (cell material: Lysate mix), less than 4.52.

The record behind these values is the supplement of paper PMC12076712.
